Data on five compounds can be found in US6746850B2 (priority 2000, dated 2004).

Data set [1] addresses T1, BChE (Cavia porcellus, UniProt H0V4F8). It counts as biochemical, Hartley guinea pig.
The target of data set [2] is T1, BChE. It is filed as biochemical, Hartley guinea pig. This is another data set of the same source.
In data set [3] the target is T2, AChE (Cavia porcellus, UniProt D3YE96). It counts as biochemical, Hartley guinea pig.
The target of data set [4] is AChE (Rattus norvegicus, UniProt P37136). It is filed as biochemical, Sprague Dawley rat.
Data set [5] addresses AChE (Macaca mulatta, UniProt A0A5F7ZPE9). It counts as biochemical, Rhesus monkey.
Data set [6] relates to BChE. It is filed as biochemical, Rhesus monkey.
The target in data set [7] is AChE (Homo sapiens, UniProt P22303). It counts as biochemical.
Data set [8] addresses BChE (Homo sapiens, UniProt P06276). It counts as biochemical.
Data set [9] concerns the target BChE (Rattus norvegicus, UniProt Q9JKC1). It is filed as biochemical, Sprague Dawley rat.
For data set [10], the target named is T2, AChE. It is filed as biochemical, Hartley guinea pig. The source holds these as a separate data set.
Data set [11] concerns the target T2, AChE. The conditions noted are these: guinea pig, in vivo.

Values joined by “and” are separate entries in the source; they are usually repeats but may differ in a detail not shown here. Identical values can stand only once.

On to `C/C=C1\[C@H]2C=C(C)C[C@]1(N)c1ccc(=O)[nH]c1C2` (racemic) [rac Hup-A, Racemic huperzine-A], for which the “BChE Average” value at BChE [1] was 0.907 U/mL and 0.930 U/mL and 0.913 U/mL and 0.929 U/mL and 0.912 U/mL and 0.892 U/mL.

Regarding `C[n+]1ccccc1C=NO` [2-PAM], the “effect on BChE” value at BChE [2] is reported as “relatively unaffected”. The “effect on AChE” value on AChE [3] is on record as “inhibited”.

With `CCC(=O)SCC[N+](C)(C)C.[I-]` [PTC, propionylthiocholine iodide], the “AChE Coefficient (sensitivity coefficient) Value” on AChE [4] turned out to be 158 mAbs/min/[blood]; on AChE [5], 844 mAbs/min/[blood]; on AChE [7], 1071 mAbs/min/[blood]. Besides, the “BChE Coefficient (sensitivity coefficient) Value” with BChE [6] was 514 mAbs/min/[blood]; on BChE [8], 1417 mAbs/min/[blood]; on BChE [9] it was 134 mAbs/min/[blood].

For the compound `CCCC(=O)SCC[N+](C)(C)C.[I-]` [BTC, butyrylthiocholine iodide], the “AChE Coefficient (sensitivity coefficient) Value” came out at 0 mAbs/min/[blood] on AChE [4], 0 mAbs/min/[blood] at AChE [5], 0 mAbs/min/[blood] on AChE [10] and 82 mAbs/min/[blood] on AChE [7]. For the same compound, the entries for the “BChE Coefficient (sensitivity coefficient) Value” in the data set on BChE [6], at BChE [8] and at BChE [9] were 661 mAbs/min/[blood], 1466 mAbs/min/[blood] and 62 mAbs/min/[blood], respectively.

Turning to `CN(C)C(=O)Oc1ccc[n+](C)c1` [PB, pyridostigmine bromide], at AChE [11], the peak inhibition time entry is recorded as “about 30 minutes”.
